Earlier results as cited in patent publication US5831002A, “Antitumor peptides” (BASF Aktiengesellschaft, priority 1995, dated 1998).

Conditions: background, literature; cited from earlier work

Substance	cell growth inhibitory activity
Dolastatin-10	potent cell growth inhibitory activity
Dolastatin-15	potent cell growth inhibitory activity
